In patent publication US9340590B2 (priority 2011, dated 2016):
Read-outs that look alike come from different tables or passages of the source. Positions of bridges follow the written chain, without caps; N, C: chain ends. Non-standard residues stand in square brackets, D forms with d. Residues, ends and D or L forms follow the SMILES beside them. Phe(4-I) = N[C@@H](Cc1ccc(I)cc1)C(=O)O; Lys(Me2) = CN(C)CCCC[C@H](N)C(=O)O; NMeF = CN[C@@H](Cc1ccccc1)C(=O)O

Experiments:
Assay in all cases: cell-based
[1] = target: hNav1.5 (Homo sapiens, UniProt Q14524); conditions: IonWorks Quattro, use, […], read-out: IWQ Use Nav1.5
[2] = target: hNav1.7 (Homo sapiens, UniProt Q15858); format: cell-based; conditions: IonWorks Quattro, use, […], read-out: IWQ Use Nav1.7
[3] = target: hNav1.3 (Homo sapiens, UniProt Q9NY46); conditions: IonWorks Quattro, use, […], read-out: IWQ Use Nav1.3
hNav1.3, sequence (Q9NY46 whole entry, looked up): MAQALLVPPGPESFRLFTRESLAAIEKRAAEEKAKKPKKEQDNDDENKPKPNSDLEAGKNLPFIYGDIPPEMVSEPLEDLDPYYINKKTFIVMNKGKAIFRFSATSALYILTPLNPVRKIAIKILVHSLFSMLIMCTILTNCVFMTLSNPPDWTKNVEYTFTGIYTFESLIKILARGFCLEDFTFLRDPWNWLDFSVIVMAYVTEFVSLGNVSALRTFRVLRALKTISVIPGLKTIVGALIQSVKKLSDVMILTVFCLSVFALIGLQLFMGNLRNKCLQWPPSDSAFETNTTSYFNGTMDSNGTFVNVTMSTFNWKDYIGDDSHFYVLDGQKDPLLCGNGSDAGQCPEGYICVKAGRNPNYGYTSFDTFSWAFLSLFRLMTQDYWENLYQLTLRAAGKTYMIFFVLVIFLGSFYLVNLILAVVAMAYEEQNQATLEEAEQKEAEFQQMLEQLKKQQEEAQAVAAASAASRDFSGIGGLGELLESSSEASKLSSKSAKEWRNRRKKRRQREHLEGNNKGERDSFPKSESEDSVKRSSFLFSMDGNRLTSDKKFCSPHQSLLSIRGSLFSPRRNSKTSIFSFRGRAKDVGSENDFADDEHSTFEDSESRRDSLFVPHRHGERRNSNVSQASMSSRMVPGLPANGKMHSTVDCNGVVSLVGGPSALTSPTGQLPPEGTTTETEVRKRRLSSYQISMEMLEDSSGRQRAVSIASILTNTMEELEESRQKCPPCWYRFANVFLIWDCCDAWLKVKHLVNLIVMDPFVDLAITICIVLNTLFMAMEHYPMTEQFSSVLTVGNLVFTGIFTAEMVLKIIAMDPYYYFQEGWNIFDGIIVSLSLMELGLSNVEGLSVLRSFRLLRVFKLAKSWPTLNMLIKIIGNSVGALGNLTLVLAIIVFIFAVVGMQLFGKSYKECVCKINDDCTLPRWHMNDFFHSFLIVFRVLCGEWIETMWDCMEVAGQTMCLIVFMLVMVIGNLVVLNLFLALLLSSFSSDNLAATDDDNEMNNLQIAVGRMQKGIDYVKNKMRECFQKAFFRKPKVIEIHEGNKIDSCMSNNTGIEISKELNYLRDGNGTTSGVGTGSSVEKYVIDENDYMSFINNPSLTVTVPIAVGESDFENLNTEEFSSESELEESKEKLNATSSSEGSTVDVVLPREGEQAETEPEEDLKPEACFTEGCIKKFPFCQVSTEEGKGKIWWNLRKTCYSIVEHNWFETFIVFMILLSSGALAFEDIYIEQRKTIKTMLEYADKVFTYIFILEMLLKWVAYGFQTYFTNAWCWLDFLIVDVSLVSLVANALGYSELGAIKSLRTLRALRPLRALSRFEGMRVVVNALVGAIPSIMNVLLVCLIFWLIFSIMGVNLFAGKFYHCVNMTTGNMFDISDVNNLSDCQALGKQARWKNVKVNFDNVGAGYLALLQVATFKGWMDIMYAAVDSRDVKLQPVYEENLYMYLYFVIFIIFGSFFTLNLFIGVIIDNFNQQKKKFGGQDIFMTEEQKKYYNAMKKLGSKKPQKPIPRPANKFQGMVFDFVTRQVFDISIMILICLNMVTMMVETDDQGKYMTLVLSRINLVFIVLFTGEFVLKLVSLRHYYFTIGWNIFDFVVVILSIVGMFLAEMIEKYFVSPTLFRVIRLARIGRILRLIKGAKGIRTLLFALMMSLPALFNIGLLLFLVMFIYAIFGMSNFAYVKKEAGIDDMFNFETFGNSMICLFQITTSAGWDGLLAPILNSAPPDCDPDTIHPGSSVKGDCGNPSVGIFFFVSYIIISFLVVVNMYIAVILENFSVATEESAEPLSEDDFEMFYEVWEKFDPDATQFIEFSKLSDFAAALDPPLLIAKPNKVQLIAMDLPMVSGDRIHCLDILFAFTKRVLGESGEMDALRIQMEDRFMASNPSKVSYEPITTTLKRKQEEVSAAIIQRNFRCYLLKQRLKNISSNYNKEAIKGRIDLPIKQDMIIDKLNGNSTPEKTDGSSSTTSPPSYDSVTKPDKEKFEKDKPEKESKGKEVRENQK

hNav1.7, sequence (Q15858 whole entry, looked up): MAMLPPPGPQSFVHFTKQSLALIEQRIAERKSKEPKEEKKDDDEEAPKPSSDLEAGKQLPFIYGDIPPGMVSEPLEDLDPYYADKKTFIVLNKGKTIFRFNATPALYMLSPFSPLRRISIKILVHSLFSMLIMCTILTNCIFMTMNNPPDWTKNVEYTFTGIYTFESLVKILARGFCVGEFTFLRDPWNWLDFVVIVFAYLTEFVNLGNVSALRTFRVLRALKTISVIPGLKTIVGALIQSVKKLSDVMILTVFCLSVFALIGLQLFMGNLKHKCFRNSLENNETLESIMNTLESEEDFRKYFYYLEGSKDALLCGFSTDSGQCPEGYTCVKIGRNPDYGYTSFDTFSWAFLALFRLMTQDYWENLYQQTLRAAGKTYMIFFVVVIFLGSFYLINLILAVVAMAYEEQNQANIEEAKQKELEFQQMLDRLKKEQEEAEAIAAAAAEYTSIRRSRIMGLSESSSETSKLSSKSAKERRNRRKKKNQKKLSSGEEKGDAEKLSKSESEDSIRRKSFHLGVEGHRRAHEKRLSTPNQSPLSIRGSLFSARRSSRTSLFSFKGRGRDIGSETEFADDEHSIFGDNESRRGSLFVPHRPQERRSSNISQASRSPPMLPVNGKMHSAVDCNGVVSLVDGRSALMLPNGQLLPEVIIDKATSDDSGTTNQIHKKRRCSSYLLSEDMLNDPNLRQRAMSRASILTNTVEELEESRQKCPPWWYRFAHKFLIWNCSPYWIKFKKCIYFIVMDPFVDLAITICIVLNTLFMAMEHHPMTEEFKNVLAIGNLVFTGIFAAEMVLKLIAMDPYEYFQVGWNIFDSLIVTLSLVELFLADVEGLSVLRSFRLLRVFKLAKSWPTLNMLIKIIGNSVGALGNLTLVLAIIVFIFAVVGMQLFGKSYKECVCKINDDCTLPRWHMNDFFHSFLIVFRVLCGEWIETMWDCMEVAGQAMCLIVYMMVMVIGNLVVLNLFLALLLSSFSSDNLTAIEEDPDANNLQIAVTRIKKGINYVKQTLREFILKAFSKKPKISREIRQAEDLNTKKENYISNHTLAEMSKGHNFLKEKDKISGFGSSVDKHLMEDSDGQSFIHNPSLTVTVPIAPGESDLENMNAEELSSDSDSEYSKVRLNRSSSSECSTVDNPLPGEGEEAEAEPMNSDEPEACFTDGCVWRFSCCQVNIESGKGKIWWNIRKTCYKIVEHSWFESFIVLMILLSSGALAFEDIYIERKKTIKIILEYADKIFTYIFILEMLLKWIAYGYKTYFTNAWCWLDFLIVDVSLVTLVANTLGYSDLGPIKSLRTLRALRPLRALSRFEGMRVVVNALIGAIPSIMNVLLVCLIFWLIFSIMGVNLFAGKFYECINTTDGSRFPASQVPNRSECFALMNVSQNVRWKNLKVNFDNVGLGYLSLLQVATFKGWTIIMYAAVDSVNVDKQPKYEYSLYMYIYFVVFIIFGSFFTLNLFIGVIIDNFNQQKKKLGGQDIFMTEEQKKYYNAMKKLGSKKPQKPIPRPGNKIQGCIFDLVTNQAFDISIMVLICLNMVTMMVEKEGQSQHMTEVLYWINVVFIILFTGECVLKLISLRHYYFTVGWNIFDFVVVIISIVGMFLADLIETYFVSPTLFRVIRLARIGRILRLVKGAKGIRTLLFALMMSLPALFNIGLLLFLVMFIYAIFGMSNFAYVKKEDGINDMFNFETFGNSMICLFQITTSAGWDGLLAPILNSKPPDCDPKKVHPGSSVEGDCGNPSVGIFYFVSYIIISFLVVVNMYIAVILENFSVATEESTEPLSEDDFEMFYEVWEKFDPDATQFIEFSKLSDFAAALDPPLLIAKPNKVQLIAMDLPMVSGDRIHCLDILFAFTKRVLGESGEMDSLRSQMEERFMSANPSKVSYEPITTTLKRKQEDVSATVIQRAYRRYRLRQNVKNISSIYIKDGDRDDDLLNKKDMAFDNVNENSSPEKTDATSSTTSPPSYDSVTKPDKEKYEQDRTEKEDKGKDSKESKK

SMILES	IC50 ([1]; Table 23)	IC50 ([2]; Table 23)	IC50 ([3]; Table 23)	IC50 ([1]; Table 24)	IC50 ([2]; Table 24)	IC50 ([3]; Table 24)
CC[C@H](C)[C@@H]1NC(=O)[C@@H]2CSSC[C@@H]3NC(=O)[C@H](C(C)C)NC(=O)[C@H](CC(C)C)NC(=O)[C@H](CC(N)=O)NC(=O)[C@@H]4CCCN4C(=O)[C@H](CCCNC(=N)N)NC(=O)[C@H](CSSC[C@H](NC(=O)[C@@H](N)CC(=O)O)C(=O)N[C@@H](CC(C)C)C(=O)NCC(=O)N[C@@H](Cc4ccccc4)C(=O)N[C@@H](CCSC)C(=O)N[C@@H](CCCNC(=N)N)C(=O)N[C@@H](CCCCN)C(=O)N2)NC(=O)[C@H](CSSC[C@@H](C(=O)N[C@@H](CCCCN)C(=O)N[C@@H](Cc2ccc(O)cc2)C(=O)N[C@H](C(=O)N[C@@H](Cc2ccccc2)C(N)=O)C(C)C)NC(=O)[C@H](Cc2c[nH]c4ccccc24)NC(=O)[C@H](CCCCN)NC(=O)[C@H](CCCCN(C)C)NC(=O)[C@H]([C@@H](C)O)NC(=O)[C@H](CCCNC(=N)N)NC(=O)[C@H](CO)NC3=O)NC(=O)[C@H](CCCCN)NC(=O)[C@H](CC(=O)O)NC(=O)[C@H](CC(N)=O)NC(=O)[C@H](CC(=O)O)NC(=O)[C@@H]2CCCN2C1=O [compound 354] (H-DCLGFMRKCIPDNDKCCRPNLVCSRT[Lys(Me2)]KWCKYVF-NH2; disulfide 2-17, 9-23, 16-30)	12.4 µM	7 µM	3.82 µM	–	–	–
CC[C@H](C)[C@@H]1NC(=O)[C@@H]2CSSC[C@@H]3NC(=O)[C@H](C(C)C)NC(=O)[C@H](CC(C)C)NC(=O)[C@H](CC(N)=O)NC(=O)[C@@H]4CCCN4C(=O)[C@H](CCCNC(=N)N)NC(=O)[C@H](CSSC[C@H](NC(=O)[C@@H](N)CC(=O)O)C(=O)N[C@@H](CC(C)C)C(=O)NCC(=O)N[C@@H](Cc4ccccc4)C(=O)N[C@@H](CCSC)C(=O)N[C@@H](CCCNC(=N)N)C(=O)N[C@@H](CCCCN)C(=O)N2)NC(=O)[C@H](CSSC[C@@H](C(=O)N[C@@H](CCCCN)C(=O)N[C@@H](Cc2ccc(O)cc2)C(=O)N[C@H](C(=O)N[C@@H](Cc2ccccc2)C(N)=O)C(C)C)NC(=O)[C@H](Cc2ccc(I)cc2)NC(=O)[C@H](CCCCN)NC(=O)[C@H](Cc2c[nH]cn2)NC(=O)[C@H]([C@@H](C)O)NC(=O)[C@H](CCCNC(=N)N)NC(=O)[C@H](CO)NC3=O)NC(=O)[C@H](CCCCN)NC(=O)[C@H](CC(=O)O)NC(=O)[C@H](CC(N)=O)NC(=O)[C@H](CC(=O)O)NC(=O)[C@@H]2CCCN2C1=O [compound 358] (H-DCLGFMRKCIPDNDKCCRPNLVCSRTHK[Phe(4-I)]CKYVF-NH2; disulfide 2-17, 9-23, 16-30)	–	–	–	14.9 µM	1.01 µM	1.27 µM
CC[C@H](C)[C@@H]1NC(=O)[C@@H]2CSSC[C@@H]3NC(=O)[C@H](C(C)C)NC(=O)[C@H](CC(C)C)NC(=O)[C@H](CC(N)=O)NC(=O)[C@@H]4CCCN4C(=O)[C@H](CCCNC(=N)N)NC(=O)[C@H](CSSC[C@H](NC(=O)[C@@H](N)CC(=O)O)C(=O)N[C@@H](CC(C)C)C(=O)NCC(=O)N[C@@H](Cc4ccccc4)C(=O)N[C@@H](CCSC)C(=O)N[C@@H](CCCNC(=N)N)C(=O)N[C@@H](CCCCN)C(=O)N2)NC(=O)[C@H](CSSC[C@@H](C(=O)N[C@@H](CCCCN)C(=O)N[C@@H](Cc2ccc(O)cc2)C(=O)N[C@H](C(=O)N[C@@H](Cc2ccccc2)C(N)=O)C(C)C)NC(=O)[C@H](Cc2ccccc2)N(C)C(=O)[C@H](CCCCN)NC(=O)[C@H](Cc2c[nH]cn2)NC(=O)[C@H]([C@@H](C)O)NC(=O)[C@H](CCCNC(=N)N)NC(=O)[C@H](CO)NC3=O)NC(=O)[C@H](CCCCN)NC(=O)[C@H](CC(=O)O)NC(=O)[C@H](CC(N)=O)NC(=O)[C@H](CC(=O)O)NC(=O)[C@@H]2CCCN2C1=O [compound 359] (H-DCLGFMRKCIPDNDKCCRPNLVCSRTHK[NMeF]CKYVF-NH2; disulfide 2-17, 9-23, 16-30)	–	–	–	18.8 µM	19.2 µM	7.39 µM
